Results from US10759799B2, “Indazole containing macrocycles and therapeutic uses thereof” (Samumed, LLC, priority 2018, dated 2020).

What was measured:
[1] = system: primary human fibroblasts derived from IPF patients (LL29 cells); experiment: Inhibition of TGF-β1 induced fibrosis (αSMA staining) in LL29 fibroblasts; assay type: cell-based; conditions: Fibroblast, 96 h, LL29 cells, TGF-β1 20 ng/mL, 4 days, % αSMA positive cells
Experimental: Representative compounds were screened using primary human fibroblasts (derived from IPF patients) treated with TGF-β1 to determine their ability to inhibit the fibrotic process.
LL29 cells were plated at 1,500 cells/well in 70 μL/well F12 medium supplemented with 1% Fetal Bovine Serum. […] Wells treated with TGF-β1 and containing DMSO were used as positive control, and cells with only DMSO were negative control. […] Following incubation for 4 days, SYTOX green nucleic acid stain (Life Technologies [Thermo Fisher Scientific]) was added to the wells at a final concentration of 1 μM and incubated at room temperature for 30 min.

[2] = target: recombinant DYRK1A kinase (Homo sapiens (Human), UniProt Q13627); experiment: DYRK1A kinase assay (Ser/Thr 18 peptide Z-lyte, FRET); assay type: biochemical; conditions: 30 μM ATP, one hour at room temperature, read-out: EC50 (μM) (IC50 per method)
Source text: Representative compounds were screened using the assay procedure for DYRK1A kinase activity as described below.
The DYRK1A kinase assay was run using the Ser/Thr 18 peptide Z-lyte assay kit according to manufacturer's instructions (Life Technologies—a Division of Thermo-Fisher). This is a non-radioactive assay using fluorescence resonance energy transfer (FRET) between coumarin and fluorescein to detect kinase activity which is represented as a ratio of coumarin emission/fluorescein emission.
Briefly, recombinant DYRK1A kinase, ATP and Ser/Thr peptide 18 were prepared in 1× Kinase buffer to final concentrations of 0.19 μg/mL, 30 μM, and 4 μM respectively. The mixture was allowed to incubate with the representative compounds for one hour at room temperature. All reactions were performed in duplicate. Unphosphorylated (“0% Control”) and phosphorylated (“100% control”) forms of Ser/Thr 18 served as control reactions. Additionally, an 11-point dose-response curve of Staurosporine (1 uM top) was run to serve as a positive compound control.
After incubation, Development Reagent A was diluted in Development Buffer then added to the reaction and allowed to further incubate for one hour at room temperature. The plate was read at Ex 400 Em 455 to detect the coumarin signal and Ex 400 Em 520 to measure the signal (EnVision Multilabel Plate Reader, PerkinElmer).
The Emission ratio (Em) was calculated as a ratio of the coumarin (C) emission signal (at 445 nm)/Fluorescein (F) emission signal (at 520 nm). The percent phosphorylation was then calculated using the following formula: [1−((Em ratio×F100%)−C100%)/((C0%−C100%)+(Em ratio×(F100%−F0%)))].

[3] = from NCc1cncc(-c2ccc3[nH]nc(C(=O)Nc4cncc(-c5cccc(CCC(=O)O)c5)c4)c3c2)c1; amide bond; 20-membered ring; HATU/DIEA/DMAP; DMF; 20.0 mM; 37.0 °C
IL-6 = IL-6 inhibition in LPS-stimulated human PBMCs (HTRF); assay type: cell-based; conditions: PBMC
Experimental: Fresh Normal PB MNC (Catalog # PB001, AllCells, Alameda, Calif.) were shipped overnight at 4° C. and resuspended in Roswell Park Memorial Institute (RPMI) 1640 Medium, with GlutaMAX Supplement (Catalog #61870127, ThermoFisher Scientific, Waltham, Mass.) supplemented with 1% Penicillin-Streptomycin (Catalog #15140163, ThermoFisher Scientific, Waltham, Mass.) and 1% fetal bovine serum (FBS) (Catalog #16140089, ThermoFisher Scientific, Waltham, Mass.) assay media.
Compound Screening: Fresh normal human peripheral blood mononuclear cells (huPBMCs) were resuspended in 1% FBS-RPMI assay media with 1% Penicillin-Streptomycin 1% to a cell concentration of 1×10e6 cells/mL. […] 50 ng/mL of Lipopolysaccharides from Escherichia coli 0111:B4 (Catalog # L5293-2ML, Sigma-Aldrich, St. Louis, Mo.) was added after 2 hours and cells were incubated for another 22 hours at 37° C.-5% CO2. After 22 hour incubation, a mixture of anti-IL6 XL665 and anti-IL-6 Cryptate diluted in reconstitution buffer (Catalog #62IL6PEC, Cisbio Inc., Bedford, Mass.) was added to each well. Following incubation for 3 hours at room temperature, Homogeneous Time-Resolved Fluorescence (HTRF) was measured using the Envision (Perkin Elmer, Shelton, Conn.) at 665 nm and […]. The ratio of fluorescence at 665 nm to 620 nm was used as a readout for IL-6 quantification. All samples were processed in duplicate. Readings were normalized to DMSO treated cells and normalized activities were utilized for EC50 calculations. EC50 was determined using software generated by Dotmatics Limited (Windhill Bishops Stortford Herts, UK) using the Levenberg-Marquardt 4 parameter fitting procedure with finite different gradients.

IC50 [2]: 0.009 µM
EC50 (IL-6; huPBMCs, LPS 50 ng/mL, 22 hours, IL-6 HTRF): > 10000 nM
SMILES: O=C1CCc2cccc(c2)-c2cncc(c2)NC(=O)c2n[nH]c3ccc(cc23)-c2cncc(c2)CN1 [Compound 97, 2^1H-4,10-diaza-2(5,3)-indazola-1,5(3,5)-dipyridina-6(1,3)-benzenacycloundecaphane-3,9-dione]
EC50 [1]: 406 nM
ring closure, isolated yield [3]: 20.8%
inhibition at 10 µM (IL-6; read-out: percent inhibition at 10 μM): 25.7%
